The pIC50 is the IC50 on a negative log10 scale, so that one unit is a factor of ten.

The nature of data set [1]: Cytotoxicity against human A549-ACE2 cells assessed as cell viability at 1 uM incubated for 48 hrs by CellTiter-Glo2 assay relative to control. The following applies: a549-ace2, 48 h. The data set is classed as toxicity, cell-based. Background: In ATP-based viability assays light output follows the ATP content of the culture.
For data set [2], the target named is T1, Casein kinase II subunit alpha' (Homo sapiens, UniProt P19784). Briefly: Inhibition of NLuc-fused CSNK2A2 (unknown origin) expressed in HEK293 cells incubated for 2 hrs by NanoBRET assay. It counts as cell-based. (Bioluminescence resonance energy transfer reports proximity on the nanometre scale.)
Target sequence in this assay (P19784 whole entry, the tested form may be a part): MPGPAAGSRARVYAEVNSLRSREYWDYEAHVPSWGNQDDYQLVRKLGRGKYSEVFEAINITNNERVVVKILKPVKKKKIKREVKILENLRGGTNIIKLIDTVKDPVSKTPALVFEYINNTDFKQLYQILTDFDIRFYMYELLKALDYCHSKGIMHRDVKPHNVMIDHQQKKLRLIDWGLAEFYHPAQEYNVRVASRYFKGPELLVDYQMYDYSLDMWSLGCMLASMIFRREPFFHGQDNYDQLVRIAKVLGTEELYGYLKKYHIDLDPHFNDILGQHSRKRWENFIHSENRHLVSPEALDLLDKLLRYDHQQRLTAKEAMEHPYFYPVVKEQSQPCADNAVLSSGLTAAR
The nature of data set [3]: Cytotoxicity against human A549-ACE2 cells assessed as cell viability at 0.1 uM incubated for 48 hrs by CellTiter-Glo2 assay relative to control. It counts as toxicity, cell-based. The conditions noted are these: a549-ace2, 48 h.
Data set [4] is described as follows: Kinetic solubility of compound in PBS at pH 7.4 incubated for 24 hrs by HPLC analysis. It counts as physicochemical. The following applies: buffer, pH 7.4, 24 h.
A further data set concerns Murine hepatitis virus. Put plainly: Antiviral activity against Murine hepatitis virus infected in mouse DBT cells preincubated with cells for 1 hrs followed by viral infection and measured after 10 hrs by luminometer. The following applies: Murine coronavirus. It counts as functional, organism-based.
Data set [5] in a line: Apparent permeability from basolateral to apical side in MDCK-MDR1 cells at 1 uM incubated for 2 hrs by fluorescence plate reader analysis. It counts as ADME, cell-based, Canis lupus familiaris. The conditions noted are these: dog, mdck-mdr1, 2 h.
In data set [6] the target is Cyclin-dependent kinase 7 (Homo sapiens, UniProt P50613). Briefly: Inhibition of human CDK7 expressed in HEK293 cells incubated for 2 hrs by NanoBRET assay. It counts as cell-based.
Cyclin-dependent kinase 7, sequence (P50613 whole entry): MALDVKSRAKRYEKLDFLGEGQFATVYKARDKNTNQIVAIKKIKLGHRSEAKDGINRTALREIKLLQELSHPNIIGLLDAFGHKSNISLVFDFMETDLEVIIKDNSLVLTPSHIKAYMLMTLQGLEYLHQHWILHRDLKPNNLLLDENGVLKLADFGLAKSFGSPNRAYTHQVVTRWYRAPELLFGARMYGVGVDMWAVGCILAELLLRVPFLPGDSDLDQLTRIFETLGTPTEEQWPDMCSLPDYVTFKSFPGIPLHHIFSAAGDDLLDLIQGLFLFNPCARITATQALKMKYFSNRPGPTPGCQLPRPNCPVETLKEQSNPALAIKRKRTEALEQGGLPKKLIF
In data set [7] the target is T1, Casein kinase II subunit alpha'. Put plainly: Inhibition of CSNK2A2 (unknown origin) in presence of ATP by Eurofins radiometric enzymatic assay.
Target sequence in this assay (P19784 whole entry, the tested form may be a part): as the sequence (P19784 whole entry, the tested form may be a part) above
Data set [8] is described as follows: Intrinsic clearance in male CD-1 mouse at 3 mg/kg, iv measured after 5 hrs by LC-MS/MS analysis. It counts as ADME, organism-based. The following applies: in vivo.
Data set [9] in a line: Apparent permeability from apical to basolateral side in MDCK-MDR1 cells at 1 uM incubated for 2 hrs by fluorescence plate reader analysis. The data set is classed as ADME, cell-based, Canis lupus familiaris. The following applies: dog, mdck-mdr1, 2 h.
Data set [10] has as its target T1, Casein kinase II subunit alpha'. Briefly: Inhibition of NLuc-fused CSNK2A2 (unknown origin) expressed in digitonin-permeabilized HEK293 cells incubated for 25 mins by NanoBRET assay. It counts as cell-based.
The target of data set [11] is Death-associated protein kinase 2 (Homo sapiens, UniProt Q9UIK4). Briefly: Inhibition of human DAPK2 expressed in HEK293 cells incubated for 2 hrs by NanoBRET assay. It counts as cell-based.
Death-associated protein kinase 2, sequence (Q9UIK4 whole entry): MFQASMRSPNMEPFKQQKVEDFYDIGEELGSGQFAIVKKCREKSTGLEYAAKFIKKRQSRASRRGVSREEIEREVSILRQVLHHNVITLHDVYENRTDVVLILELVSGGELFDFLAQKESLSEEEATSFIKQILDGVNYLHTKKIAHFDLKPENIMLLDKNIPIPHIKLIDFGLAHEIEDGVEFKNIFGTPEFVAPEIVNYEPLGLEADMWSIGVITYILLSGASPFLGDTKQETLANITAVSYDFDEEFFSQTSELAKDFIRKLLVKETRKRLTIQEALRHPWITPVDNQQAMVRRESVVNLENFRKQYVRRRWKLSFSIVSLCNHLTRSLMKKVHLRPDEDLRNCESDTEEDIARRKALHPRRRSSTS
Data set [12] deals with T2, Homeodomain-interacting protein kinase 4 (Homo sapiens, UniProt Q8NE63).
T2 sequence (Q8NE63 whole entry): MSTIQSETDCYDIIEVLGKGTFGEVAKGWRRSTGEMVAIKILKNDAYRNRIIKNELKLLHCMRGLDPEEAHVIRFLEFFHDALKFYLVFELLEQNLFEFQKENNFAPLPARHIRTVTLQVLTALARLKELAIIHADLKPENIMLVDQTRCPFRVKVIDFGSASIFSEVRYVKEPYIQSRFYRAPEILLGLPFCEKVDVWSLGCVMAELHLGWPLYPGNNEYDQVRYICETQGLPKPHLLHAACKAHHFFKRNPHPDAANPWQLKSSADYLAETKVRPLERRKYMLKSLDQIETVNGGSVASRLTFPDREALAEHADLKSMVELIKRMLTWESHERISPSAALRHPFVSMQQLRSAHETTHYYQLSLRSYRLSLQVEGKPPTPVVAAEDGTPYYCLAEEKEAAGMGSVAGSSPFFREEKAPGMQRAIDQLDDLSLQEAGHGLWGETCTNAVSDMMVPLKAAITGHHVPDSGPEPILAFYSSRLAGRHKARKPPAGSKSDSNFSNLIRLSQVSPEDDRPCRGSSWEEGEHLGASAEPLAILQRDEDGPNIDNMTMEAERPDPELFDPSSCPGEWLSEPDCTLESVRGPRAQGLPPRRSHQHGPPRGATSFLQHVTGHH
Briefly: Inhibition of human HIPK4 expressed in HEK293 cells incubated for 2 hrs by NanoBRET assay. The data set is classed as cell-based.

Data set [13] is described as follows: Cytotoxicity against human A549-ACE2 cells assessed as reduction in cell viability at >10 uM pretreated for 1 hrs followed by mock infection for 2 hrs and replacement with fresh medium containing compound and measured 48 hrs post mock-infection by LDH assay. The following applies: a549-ace2, 49 h. It counts as toxicity, cell-based.
In data set [14] the target is Phosphorylase b kinase gamma catalytic chain, skeletal muscle/heart isoform (Homo sapiens, UniProt Q16816). Put plainly: Inhibition of human PHKG1 expressed in HEK293 cells incubated for 2 hrs by NanoBRET assay. It counts as cell-based.
Phosphorylase b kinase gamma catalytic chain, skeletal muscle/heart isoform, sequence (Q16816 whole entry, canonical isoform): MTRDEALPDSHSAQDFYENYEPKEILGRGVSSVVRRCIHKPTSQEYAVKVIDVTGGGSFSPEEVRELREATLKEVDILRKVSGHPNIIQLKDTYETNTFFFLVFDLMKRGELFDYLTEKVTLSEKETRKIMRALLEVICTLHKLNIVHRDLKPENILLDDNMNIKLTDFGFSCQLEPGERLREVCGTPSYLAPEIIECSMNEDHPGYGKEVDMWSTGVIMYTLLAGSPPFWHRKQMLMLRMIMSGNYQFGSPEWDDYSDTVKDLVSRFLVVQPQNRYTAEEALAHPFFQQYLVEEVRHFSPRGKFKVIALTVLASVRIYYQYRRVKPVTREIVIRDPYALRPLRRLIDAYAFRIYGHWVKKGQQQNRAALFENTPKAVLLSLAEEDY
Data set [15] concerns the target Dual specificity protein kinase CLK4 (Homo sapiens, UniProt Q9HAZ1). Put plainly: Inhibition of human CLK4 expressed in HEK293 cells incubated for 2 hrs by NanoBRET assay. It counts as cell-based.
Data set [16] addresses Dual specificity protein kinase CLK2 (Homo sapiens, UniProt P49760). Put plainly: Inhibition of human CLK2 expressed in HEK293 cells incubated for 2 hrs by NanoBRET assay. The data set is classed as cell-based.
The target of data set [17] is T1, Casein kinase II subunit alpha'. Briefly: Inhibition of human CSNK2A2 expressed in HEK293 cells incubated for 2 hrs by NanoBRET assay. It counts as cell-based.
Target sequence in this assay (P19784 whole entry, the tested form may be a part): as the sequence (P19784 whole entry, the tested form may be a part) above
Data set [18] concerns the target Dual specificity tyrosine-phosphorylation-regulated kinase 1A (Homo sapiens) (UniProt Q13627). Briefly: Binding affinity to human DYRK1A expressed in HEK293 cells assessed as target occupancy upto 3 uM incubated for 2 hrs by NanoBRET assay. It counts as cell-based.
Data set [19] concerns the target Casein kinase 2 (Homo sapiens) (UniProt P67870+P68400+P19784+Q8NEV1). Put plainly: Inhibition of CSNK2 downstream signaling in human A549-ACE2 cells assessed as reduction in EIF2S2 phosphorylation at 1 to 5 uM measured after 24 hrs by Western blot analysis. It counts as cell-based. The conditions noted are these: dose 1-5 µM. For orientation: Immunoblotting shows a protein as a band on a membrane.

Data set [20] concerns the target Dual specificity protein kinase CLK1 (Homo sapiens, UniProt P49759). Briefly: Inhibition of human CLK1 expressed in HEK293 cells incubated for 2 hrs by NanoBRET assay. The data set is classed as cell-based.
Data set [21] concerns the target Casein kinase II subunit alpha (Homo sapiens, UniProt P68400). Briefly: Inhibition of CSNK2A1 (unknown origin) in presence of ATP by Eurofins radiometric enzymatic assay.

Each structure is given as a SMILES string. pIC50: −log10 of the molar value. Calls of active or inactive are those of the source. The rule behind the calls is not given here.

Dual specificity protein kinase CLK4, sequence (Q9HAZ1 whole entry): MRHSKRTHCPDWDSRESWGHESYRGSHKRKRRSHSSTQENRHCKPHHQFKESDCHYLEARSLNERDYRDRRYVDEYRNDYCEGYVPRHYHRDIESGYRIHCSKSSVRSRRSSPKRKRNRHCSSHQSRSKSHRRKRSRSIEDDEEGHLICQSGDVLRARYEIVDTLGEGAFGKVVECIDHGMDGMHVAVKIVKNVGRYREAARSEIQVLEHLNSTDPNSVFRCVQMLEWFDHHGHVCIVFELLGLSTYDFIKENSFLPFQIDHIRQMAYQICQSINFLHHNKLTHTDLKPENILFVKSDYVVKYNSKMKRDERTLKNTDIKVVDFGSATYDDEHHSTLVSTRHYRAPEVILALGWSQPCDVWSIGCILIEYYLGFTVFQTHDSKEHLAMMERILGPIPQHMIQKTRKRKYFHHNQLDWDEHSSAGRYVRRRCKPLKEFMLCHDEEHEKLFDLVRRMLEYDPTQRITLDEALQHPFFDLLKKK
Dual specificity protein kinase CLK2, sequence (P49760 whole entry): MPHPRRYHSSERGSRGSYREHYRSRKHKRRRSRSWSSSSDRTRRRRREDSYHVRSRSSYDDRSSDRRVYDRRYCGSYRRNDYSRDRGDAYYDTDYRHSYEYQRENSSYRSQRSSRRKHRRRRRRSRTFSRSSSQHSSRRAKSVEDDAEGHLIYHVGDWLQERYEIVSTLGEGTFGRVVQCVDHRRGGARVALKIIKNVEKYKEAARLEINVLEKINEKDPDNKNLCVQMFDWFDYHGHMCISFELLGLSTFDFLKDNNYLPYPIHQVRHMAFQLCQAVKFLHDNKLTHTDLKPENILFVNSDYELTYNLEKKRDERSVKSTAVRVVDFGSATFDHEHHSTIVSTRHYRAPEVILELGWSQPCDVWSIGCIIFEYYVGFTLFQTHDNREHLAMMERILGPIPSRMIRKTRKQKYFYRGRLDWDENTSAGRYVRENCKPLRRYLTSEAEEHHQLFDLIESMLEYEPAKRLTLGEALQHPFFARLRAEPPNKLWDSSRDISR
Dual specificity protein kinase CLK1, sequence (P49759 whole entry): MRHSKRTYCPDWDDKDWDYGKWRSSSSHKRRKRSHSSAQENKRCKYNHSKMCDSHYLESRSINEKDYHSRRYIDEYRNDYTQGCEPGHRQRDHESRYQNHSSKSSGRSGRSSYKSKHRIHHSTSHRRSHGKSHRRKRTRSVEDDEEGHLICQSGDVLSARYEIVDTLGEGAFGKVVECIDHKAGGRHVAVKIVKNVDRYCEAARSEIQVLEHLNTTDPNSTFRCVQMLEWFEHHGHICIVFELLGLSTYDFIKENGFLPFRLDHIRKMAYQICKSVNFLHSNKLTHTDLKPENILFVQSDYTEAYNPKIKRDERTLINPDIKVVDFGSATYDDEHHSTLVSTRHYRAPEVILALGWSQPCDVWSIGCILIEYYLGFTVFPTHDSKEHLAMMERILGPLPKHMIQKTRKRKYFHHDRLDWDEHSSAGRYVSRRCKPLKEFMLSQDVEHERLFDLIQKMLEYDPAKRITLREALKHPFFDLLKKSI
Casein kinase II subunit alpha, sequence (P68400 whole entry): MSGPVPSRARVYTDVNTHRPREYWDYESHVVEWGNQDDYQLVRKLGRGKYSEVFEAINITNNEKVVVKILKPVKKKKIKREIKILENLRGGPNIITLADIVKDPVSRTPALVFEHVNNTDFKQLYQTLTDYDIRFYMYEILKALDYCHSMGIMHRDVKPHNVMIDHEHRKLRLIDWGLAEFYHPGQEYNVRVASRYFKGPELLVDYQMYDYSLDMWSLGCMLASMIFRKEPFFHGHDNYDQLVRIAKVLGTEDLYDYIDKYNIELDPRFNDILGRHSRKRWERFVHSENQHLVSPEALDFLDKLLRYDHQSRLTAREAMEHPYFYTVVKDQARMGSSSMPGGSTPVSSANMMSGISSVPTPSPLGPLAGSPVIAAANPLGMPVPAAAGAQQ

For `C[C@H](N)CN(C)c1ccc(Nc2cc(NC3CC3)n3ncc(C#N)c3n2)cc1-n1cnnc1`, the Activity in data set [1] was 76%; in data set [3] it was 93%. For the same compound, the results for the pIC50 (in data set [2]; with Murine hepatitis virus) were 6.50 and 6.70, respectively. For the same compound, the Kinetic_solubility in data set [4] is 50 µg/mL.

Regarding `N#Cc1cnn2c(NC3CC3)cc(Nc3cccc(-n4cnnc4)c3)nc12`, the values for the Activity in data set [1] and in data set [3] were 85% and 100%, respectively. The results for the pIC50 (in data set [2]; in the data set with Murine hepatitis virus) were 8.40 and 7.40, respectively. Further, the Kinetic_solubility in data set [4] turned out to be 0.47 µg/mL.

`N#Cc1cnn2c(NC3CC3)cc(Nc3cccc(-c4cnn[nH]4)c3)nc12`: the figures for the Activity in data set [1] and in [3] were 85% and 100%, respectively. Besides, the negative logarithm of the IC50 (pIC50) in [2] was 8.00; with Murine hepatitis virus, 7.10.

With `CCN(CC)CCN(C)c1ccc(Nc2cc(NC3CC3)n3ncc(C#N)c3n2)cc1-n1cnnc1`, the Activity in data set [1] worked out at 100%; in data set [3], 98%. Also, the figures for the pIC50 (in data set [2]; in the data set with Murine hepatitis virus) were 7.00 and 6.10, respectively. This compound also displayed a Kinetic_solubility in [4] of 60 µg/mL.

As for `CN(CCO)c1ccc(Nc2cc(NC3CC3)n3ncc(C#N)c3n2)cc1-n1cnnc1`, the Activity in data set [1] was determined as 97%; in data set [3], 95%. Also, the pIC50 in [2] is 6.90; with Murine hepatitis virus, 6.70. This compound also had a Kinetic_solubility in [4] of 38 µg/mL.

As to `C[C@@H](N)CN(C)c1ccc(Nc2cc(NC3CC3)n3ncc(C#N)c3n2)cc1-n1cnnc1`, the results for the Activity in [1] and in [3] were 91% and 95%, respectively. Besides, the negative-log IC50 (pIC50) was 6.60 in data set [2] and 6.30 in the data set with Murine hepatitis virus. In data set [4], this compound returned a Kinetic_solubility of 62 µg/mL.

Turning to `COCCNc1ccc(Nc2cc(NC3CC3)n3ncc(C#N)c3n2)cc1-n1cnnc1`, the Activity in data set [1] and in data set [3] was 99% in each case. For the same compound, the pIC50 in data set [2] was 6.90; in the data set on Murine hepatitis virus, 6.50. In data set [4], this compound showed a Kinetic_solubility of 0.8 µg/mL.

Consider `CCN(CCN)c1ccc(Nc2cc(NC3CC3)n3ncc(C#N)c3n2)cc1-n1cnnc1`, for which the Papp in data set [5] was 0.36 10^-6 cm/s; in data set [9], 0.16 10^-6 cm/s. The pIC50 in data set [6] is 4.80; in data set [7] it was 9.18; in data set [10] it was 7.10; in data set [2], 6.50; in data set [11], 5.60; in data set [12] it was 4.60. For the same compound, the pIC50 in [14] is 5.20; in [15], 5.60; in data set [16], 5.50; in [17], 6.50; in [20] it was 5.30; in [21], 8.77. The compound further gave a pIC50 in the data set with Murine hepatitis virus of 6.70. In addition, in data set [8], the CL is 86 mL/min/kg. Besides, the inhibition entry in data set [10] was “Dose-Dependent Effect”. Besides, the Activity entry in data set [13] was “Non-Toxic”. Also, the outcome in data set [18] was inactive. Besides, the inhibition result in data set [19] was “Active”.

Turning to `N#Cc1cnn2c(NC3CC3)cc(Nc3ccc(F)c(-n4cnnc4)c3)nc12`, the Activity in data set [1] and in data set [3] was 99% each time. The pIC50 in data set [2] was 8.30; in the data set with Murine hepatitis virus it was 6.50. Also, the Kinetic_solubility in data set [4] is 0.3 µg/mL.

As for `CN(CCN)c1ccc(Nc2cc(NC3CC3)n3ncc(C#N)c3n2)cc1-n1cnnc1`, the Activity in data set [1] stood at 87%; in [3] it was 99%. Also, the negative-log IC50 (pIC50) in data set [2] is 6.60; in the data set on Murine hepatitis virus it was 6.40. Besides, the Kinetic_solubility in data set [4] turned out to be 45 µg/mL.

Take `N#Cc1cnn2c(NC3CC3)cc(Nc3ccc(N4CC[C@H](N)C4)c(-n4cnnc4)c3)nc12`: in data set [1], the Activity is 85%. Moreover, the pIC50 in data set [2] was 6.80; in the data set with Murine hepatitis virus, 6.40. This compound also came in with a Kinetic_solubility in [4] of 49 µg/mL.

With `N#Cc1cnn2c(NC3CC3)cc(Nc3ccnc(-n4cnnc4)c3)nc12`, the figures for the Activity in data set [1] and in [3] were 98% and 99%, respectively. Moreover, the pIC50 in [2] was 8.00; in the data set on Murine hepatitis virus it was 7.20. In data set [4], this compound returned a Kinetic_solubility of 0.27 µg/mL.

In the case of `N#Cc1cnn2c(NC3CC3)cc(Nc3cc(-n4cnnc4)ccc3F)nc12`, the Activity in data set [1] worked out at 59%; in [3], 86%. Besides, the figures for the pIC50 (in [2]; in the data set with Murine hepatitis virus) were 8.50 and 8.20, respectively. The same compound yielded a Kinetic_solubility in [4] of 1.5 µg/mL.

For the origin of these results see ChEMBL document CHEMBL5500423, “More than an Amide Bioisostere: Discovery of 1,2,4-Triazole-containing Pyrazolo[1,5-a]pyrimidine Host CSNK2 Inhibitors for Combatting β-Coronavirus Replication” (J Med Chem, 2024).
